Converted amounts (≈) assume the structure as drawn. Where two headings read alike, the source gives them in different places. Bridge positions count the residues as written; N and C are the ends. Square brackets hold non-standard residues; d marks the D form. Peptide text beside a SMILES is read from it. * marks the point of attachment. βGal = OC[C@H]1O[C@@H](*)[C@H](O)[C@@H](O)[C@H]1O; X1 = OC[C@H]1O[C@@H](N*)[C@H](O)[C@@H](O)[C@H]1O; Dap = NC[C@H](N)C(=O)O
Assays:
Water solubility = format: physicochemical; conditions: table of example 2
[1] = water solubility of known insoluble antagonists, stated in the description; cited from earlier work

SMILES	Solubility (Water solubility)	Solubility [1]
CC(C)C[C@@H]1NC(=O)[C@@H]2CNC(=O)C[C@H](NC(=O)[C@H](CC(=O)N[C@@H]3O[C@H](CO)[C@H](O)[C@H](O)[C@H]3O)NC1=O)C(=O)N[C@@H](Cc1c[nH]c3ccccc13)C(=O)N[C@@H](Cc1ccccc1)C(=O)N2 [Comparative example 2, cyclo[Asn^1 (β-D-Gal)-Asp^2 -Trp^3 -Phe^4 -Dap^5 -Leu^6]cyclo(2β-5β)] (cyclo(D(X1)DWF[Dap]L); lactam 2-5)	1.980 µg/mL (≈ 2.19 µM)	
CSCC[C@@H]1NC(=O)[C@H](CC(C)C)NC(=O)[C@@H]2CNC(=O)C[C@H](NC1=O)C(=O)N[C@@H](Cc1c[nH]c3ccccc13)C(=O)N[C@@H](Cc1ccccc1)C(=O)N2 [MEN 10627] (cyclo(DWF[Dap]LM); lactam 1-4)	15 µg/mL (≈ 19.7 µM)	15 µg/mL (≈ 19.7 µM)
CC(C)C[C@@H]1NC(=O)[C@@H]2CNC(=O)C[C@H](NC(=O)[C@H](CO[C@@H]3O[C@H](CO)[C@H](O)[C@H](O)[C@H]3O)NC1=O)C(=O)N[C@@H](Cc1c[nH]c3ccccc13)C(=O)N[C@@H](Cc1ccccc1)C(=O)N2 [Comparative example 1, cyclo[Ser^1 (β-D-Gal)-Asp^2 -Trp^3 -Phe^4 -Dap^5 -Leu^6]cyclo(2β-5β)] (cyclo(DWF[Dap]LS(βGal)); lactam 1-4)	2.020 µg/mL (≈ 2.3 µM)	
CC(C)C[C@@H]1NC(=O)[C@@H]2CNC(=O)C[C@H](NC(=O)[C@H](CS[C@@H]3O[C@H](CO)[C@H](O)[C@H](O)[C@H]3O)NC1=O)C(=O)N[C@@H](Cc1c[nH]c3ccccc13)C(=O)N[C@@H](Cc1ccccc1)C(=O)N2 [Example 1, cyclo[Cys^1 (β-D-Gal)-Asp^2 -Trp^3 -Phe^4 -Dap^5 -Leu^6]cyclo(2β-5β)] (cyclo(C(βGal)DWF[Dap]L); lactam 2-5)	1.800 µg/mL (≈ 2.01 µM)	

— US6075006A, “Soluble tachykinin antagonists, the preparation and use thereof” (Centro Interuniversitario di Ricera Sui Peptidi …, priority 1996, dated 2000)
